# Reference: patent publication US10435399B2, “HDAC6 inhibitory heterocyclic compound” (TAKEDA PHARMACEUTICAL COMPANY LIMITED, priority 2017, dated 2019)
# Biological target: T1, HDAC6 enzyme (Homo sapiens, UniProt Q9UBN7)
# T1 construct: transducing full length HDAC6 gene into Sf-9 insect cells; GST; purchased SignalChem; host or cells: Sf-9 insect cells
# T1 sequence (Q9UBN7 1-1215): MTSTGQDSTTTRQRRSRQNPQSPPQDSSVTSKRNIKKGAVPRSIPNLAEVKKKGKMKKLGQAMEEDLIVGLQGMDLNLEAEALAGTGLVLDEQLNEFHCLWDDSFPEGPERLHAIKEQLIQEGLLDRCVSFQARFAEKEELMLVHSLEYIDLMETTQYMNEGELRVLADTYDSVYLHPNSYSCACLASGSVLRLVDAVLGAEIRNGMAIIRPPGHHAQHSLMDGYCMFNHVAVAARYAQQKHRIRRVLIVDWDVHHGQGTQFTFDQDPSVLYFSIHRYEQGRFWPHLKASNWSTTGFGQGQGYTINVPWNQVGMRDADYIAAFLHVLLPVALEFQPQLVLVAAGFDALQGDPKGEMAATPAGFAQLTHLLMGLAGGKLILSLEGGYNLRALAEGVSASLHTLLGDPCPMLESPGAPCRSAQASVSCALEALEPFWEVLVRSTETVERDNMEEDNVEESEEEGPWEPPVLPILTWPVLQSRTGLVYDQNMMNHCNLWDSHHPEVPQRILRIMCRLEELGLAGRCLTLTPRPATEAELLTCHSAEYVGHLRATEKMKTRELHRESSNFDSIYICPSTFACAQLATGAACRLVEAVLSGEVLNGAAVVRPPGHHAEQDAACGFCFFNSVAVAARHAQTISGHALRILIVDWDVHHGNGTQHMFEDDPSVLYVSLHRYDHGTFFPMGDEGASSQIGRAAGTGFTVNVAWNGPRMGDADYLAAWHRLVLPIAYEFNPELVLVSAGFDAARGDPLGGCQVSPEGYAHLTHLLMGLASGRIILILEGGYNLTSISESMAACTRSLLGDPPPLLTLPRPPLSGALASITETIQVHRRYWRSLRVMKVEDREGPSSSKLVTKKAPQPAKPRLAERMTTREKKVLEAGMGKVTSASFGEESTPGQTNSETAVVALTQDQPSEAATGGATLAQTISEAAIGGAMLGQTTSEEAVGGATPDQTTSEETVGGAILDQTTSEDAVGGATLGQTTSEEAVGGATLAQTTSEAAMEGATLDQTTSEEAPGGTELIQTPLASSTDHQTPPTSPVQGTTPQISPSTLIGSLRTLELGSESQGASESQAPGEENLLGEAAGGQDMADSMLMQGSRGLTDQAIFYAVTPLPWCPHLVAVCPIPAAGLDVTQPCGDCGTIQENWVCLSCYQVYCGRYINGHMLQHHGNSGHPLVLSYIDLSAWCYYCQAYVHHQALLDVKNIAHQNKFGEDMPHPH
# Assay: HDAC6 enzyme inhibitory activity (HDAC-Glo I/II Assay kit)
# Type: biochemical
# Conditions: 10 μM; wells without enzyme = 100% inhibition; read-out: HDAC6 inhibitory rate (%) (10 μM)
# How it was run: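 Luminescent HDAC-Glo I/II readout after 20 min room-temperature reaction with substrate-developer, following 60 min compound–enzyme preincubation. Enzyme: full-length HDAC6 from Sf-9 cells, GST-purified; buffer 24 mM Tris-HCl pH 7.5, 0.01% Tween-20, glutathione, salts. Wells lacking enzyme define 100% inhibition.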
row,Structure (SMILES),inhibition at 10 µM [%]
1,"CC(F)C(=O)N[C@@H]1CCCC[C@H]1N1Cc2ccc(-c3nnc(C(F)F)o3)cc2C1=O (stereo partly drawn) [Example 66, N-((1R,2R)-2-(6-(5-(difluoromethyl)-1,3,4-oxadiazol-2-yl)-1-oxo-1,3-dihydro-2H-isoindol-2-yl)cyclohexyl)-2-fluoropropanamide]",101
2,"O=C1OCCCN1[C@@H]1CCCC[C@H]1N1Cc2ccc(-c3nnc(C(F)F)o3)cc2C1=O [Example 21, 6-(5-(difluoromethyl)-1,3,4-oxadiazol-2-yl)-2-((1R,2R)-2-(2-oxo-1,3-oxazinan-3-yl)cyclohexyl)isoindolin-1-one]",100
3,"COC(C)(C)C(=O)N[C@@H]1CCCC[C@H]1N1Cc2ccc(-c3nnc(C(F)F)o3)cc2C1=O [Example 85, N-((1R,2R)-2-(6-(5-(difluoromethyl)-1,3,4-oxadiazol-2-yl)-1-oxo-1,3-dihydro-2H-isoindol-2-yl)cyclohexyl)-2-methoxy-2-methylpropanamide]",101
4,"CC(C)(OC(=O)N[C@@H]1COCC[C@H]1N1Cc2c(F)cc(-c3nnc(C(F)F)o3)cc2C1=O)C(F)(F)F [Example 213, 1,1,1-trifluoro-2-methylpropan-2-yl ((3S,4R)-4-(6-(5-(difluoromethyl)-1,3,4-oxadiazol-2-yl)-4-fluoro-1-oxo-1,3-dihydro-2H-isoindol-2-yl)tetrahydro-2H-pyran-3-yl)carbamate]",100
5,"COCCOc1ccc(-c2ccccc2N2Cc3ccc(-c4nnc(C(F)F)o4)cc3C2=O)cc1 [Example 321, 6-(5-(difluoromethyl)-1,3,4-oxadiazol-2-yl)-2-(4′-(2-methoxyethoxy)biphenyl-2-yl)isoindolin-1-one]",98
6,"Cn1nc(C(F)(F)F)cc1-c1cc(F)ccc1N1Cc2ncc(-c3nnc(C(F)F)o3)cc2C1=O [Example 412, 3-(5-(difluoro-methyl)-1,3,4-oxadiazol-2-yl)-6-(4-fluoro-2-(1-methyl-3-(trifluoro-methyl)-1H-pyrazol-5-yl)phenyl)-6,7-dihydro-5H-pyrrolo[3,4-b] pyridin-5-one]",100
7,"N#Cc1cccc(-c2cc(F)ccc2N2Cc3ncc(-c4nnc(C(F)F)o4)cc3C2=O)c1 [Example 407, 2′-(3-(5-(difluoro-methyl)-1,3,4-oxadiazol-2-yl)-5-oxo-5,7-dihydro-6H-pyrrolo[3,4-b]pyridin-6-yl)-5′-fluoro-biphenyl-3-carbonitrile]",99
8,"O=C1c2cc(-c3nnc(C(F)F)o3)ccc2CN1[C@@H]1CCCC[C@H]1NC(=O)C1(c2ccc(F)cc2)CCC1 [Example 109, N-((1R,2R)-2-(6-(5-(difluoromethyl)-1,3,4-oxadiazol-2-yl)-1-oxo-1,3-dihydro-2H-isoindol-2-yl)cyclohexyl)-1-(4-fluorophenyl)cyclobutanecarboxamide]",97
9,"Cn1cc(C(C)(C)O)c(N2Cc3ccc(-c4nnc(C(F)F)o4)cc3C2=O)n1 [Example 631, 6-(5-(difluoromethyl)-1,3,4-oxadiazol-2-yl)-2-(4-(2-hydroxypropan-2-yl)-1-methyl-1H-pyraozl-3-yl)isoindolin-1-one]",99
10,"O=C(N[C@@H]1COCC[C@H]1N1Cc2c(F)cc(-c3nnc(C(F)F)o3)cc2C1=O)c1cccc(Cl)c1 [Example 190, 3-chloro-N-((3S,4R)-4-(6-(5-(difluoromethyl)-1,3,4-oxadiazol-2-yl)-4-fluoro-1-oxo-1,3-dihydro-2H-isoindol-2-yl)tetrahydro-2H-pyran-3-yl)benzamide]",100
11,"CS(=O)(=O)c1cncc(-c2ccccc2N2Cc3ccc(-c4nnc(C(F)F)o4)cc3C2=O)c1 [Example 314, 6-(5-(difluoromethyl)-1,3,4-oxadiazol-2-yl)-2-(2-(5-(methylsulfonyl)pyridin-3-yl)phenyl)isoindolin-1-one]",101
12,"O=C1c2cc(-c3nnc(C(F)F)o3)ccc2CN1[C@@H]1CCCC[C@H]1NC(=O)C(F)(F)F [Example 6, N-((1R,2R)-2-(6-(5-(difluoromethyl)-1,3,4-oxadiazol-2-yl)-1-oxo-1,3-dihydro-2H-isoindol-2-yl)cyclohexyl)-2,2,2-trifluoroacetamide]",102
13,O=C1c2cc(-c3nnc(C(F)F)o3)cnc2CN1[C@@H]1CCCC[C@H]1NC(=O)C(F)(F)C1CC1 [Example 237],100
14,"O=C1c2cc(-c3nnc(C(F)F)o3)ccc2CN1c1ccccc1-c1ccc(OC(F)(F)F)cc1 [Example 299, 6-(5-(difluoromethyl)-1,3,4-oxadiazol-2-yl)-2-(4′-(trifluoromethoxy)biphenyl-2-yl)isoindolin-1-one]",94
15,"Cn1cc(-c2ccccc2N2Cc3c(F)cc(-c4nnc(C(F)F)o4)cc3C2=O)cn1 [Example 392, 6-(5-(difluoro-methyl)-1,3,4-oxadiazol-2-yl)-4-fluoro-2-(2-(1-methyl-1H-pyrazol-4-yl)phenyl) isoindolin-1-one]",99
16,"CC(C)(C)OC(=O)N1CCC[C@H](N2Cc3ccc(-c4nnc(C(F)F)o4)cc3C2=O)[C@H]1c1ccc(F)cc1 (racemic) [Example 574, tert-butyl (2RS,3SR)-3-(6-(5-(difluoromethyl)-1,3,4-oxadiazol-2-yl)-1-oxo-1,3-dihydro-2H-isoindol-2-yl)-2-(4-fluorophenyl)piperidine-1-carboxylate]",100
17,"O=C1c2cc(-c3nnc(C(F)F)o3)ccc2CN1c1ccc(F)cc1-n1cc(Br)cn1 [Example 482, 2-(2-(4-bromo-1H-pyrazol-1-yl)-4-fluoro-phenyl)-6-(5-(difluoro-methyl)-1,3,4-oxadiazol-2-yl) isoindolin-1-one]",100
18,"CC(C)(C(=O)N[C@H]1CCCC[C@H]1N1Cc2ccc(-c3nnc(C(F)F)o3)cc2C1=O)C(F)(F)F [Example 260, N-((1S,2R)-2-(6-(5-(difluoro-methyl)-1,3,4-oxadiazol-2-yl)-1-oxo-1,3-dihydro-2H-isoindol-2-yl)cyclohexyl)-3,3,3-trifluoro-2,2-dimethyl-propanamide]",98
19,"O=C1OCCN1[C@@H]1CCCC[C@H]1N1Cc2ccc(-c3nnc(C(F)F)o3)cc2C1=O [Example 22, 6-(5-(difluoromethyl)-1,3,4-oxadiazol-2-yl)-2-((1R,2R)-2-(2-oxo-1,3-oxazolidin-3-yl)cyclohexyl)isoindolin-1-one]",98
20,"Cn1cc(C2CCC(NC(=O)OC(C)(C)C)CC2)c(N2Cc3ccc(-c4nnc(C(F)F)o4)cc3C2=O)n1 (stereo not drawn) [Example 523, tert-butyl (4-(3-(6-(5-(difluoromethyl)-1,3,4-oxadiazol-2-yl)-1-oxo-1,3-dihydro-2H-isoindol-2-yl)-1-methyl-1H-pyrazol-4-yl)cyclohexyl)carbamate]",99
21,"CC(F)(F)C(=O)N[C@H]1COCC[C@H]1N1Cc2c(F)cc(-c3nnc(C(F)F)o3)cc2C1=O [Example 366, N-((3R,4R)-4-(6-(5-(difluoromethyl)-1,3,4-oxadiazol-2-yl)-4-fluoro-1-oxo-1,3-dihydro-2H-isoindol-2-yl)tetrahydro-2H-pyran-3-yl)-2,2-difluoropropanamide]",97
22,"CC(C)OC(=O)N1CCOC[C@@H]1CN1Cc2ccc(-c3nnc(C(F)F)o3)cc2C1=O [Example 46, isopropyl (3S)-3-((6-(5-(difluoromethyl)-1,3,4-oxadiazol-2-yl)-1-oxo-1,3-dihydro-2H-isoindol-2-yl)methyl)morpholine-4-carboxylate]",97
23,"O=C1c2cc(-c3nnc(C(F)F)o3)cc(F)c2CN1C[C@H]1CC(F)(F)CN1S(=O)(=O)c1ccccc1 [Example 430, 6-(5-(difluoro-methyl)-1,3,4-oxadiazol-2-yl)-2-(((2R)-4,4-difluoro-1-(phenylsulfonyl)pyrrolidin-2-yl)methyl)-4-fluoroiso-indolin-1-one]",101
24,"O=C1c2cc(-c3nnc(C(F)F)o3)ccc2CN1Cc1ccc(F)cc1 [Example 151, 6-(5-(difluoromethyl)-1,3,4-oxadiazol-2-yl)-2-(4-fluorobenzyl)isoindolin-1-one]",98
